# Values quoted from earlier work, collected in patent publication US9320295B2, “Compositions containing non-polar compounds” (Virun, Inc., priority 2010, dated 2016).
row,Substance,HLB value
1,sucrose dipalmitate,7.4
2,sucrose distearate,3
3,sucrose monopalmitate,> 10
